Patent publication US7169604B1, “Method for PR-39 peptide mediated selective inhibition of IκBα degradation” (Beth Israel Deaconess Medical Center, priority 1998, dated 2007)
Ends that are not written are not given here.

What was measured:
p21, cyclin E and c-fos = assay: Levels of proteasome-regulated proteins by Western blotting; format: cell-based, human
Experimental: This is shown by FIG. 3C.
The level of proteasome-regulated cell cycle repressor p21, cyclin E and c-fos proteins were determined by Western blotting in U937 cells pretreated with various amounts of PR-39 and then exposed to TNF-α (1 ng/ml).

[1] = Infarct size in mice, ischemia-reperfusion injury; format: in vivo; settings: infusion prior to restoration of flow
Description: • a. Inhibition of ischemia-reperfusion injury. Restoration of blood flow to the myocardium in the setting of acute myocardial infarction leads to further damage to ischemic but still live heart muscle due to an influx of inflammatory blood cells that is mediated by NFκB-activated expression of endothelial adhesion molecules ICAM-1 and VCAM-1. Infusion of PR39 prior to restoration of flow blocks this effect due to inhibition of NFκB activity and effectively protects from further myocardial injury. […] Inhibition of chemical pancreatitis. Tissue injury in the pancreas due to chemical or hormonal injury is one of the more common causes of acute pancreatitis. This is largely mediated by NFκB. Pre-treatment with PR39 blocks this injury. • c. PR39 will block any other injury activated NFκB-dependent gene transcription and thus can be used to block the development of skin wounds, ulcers (stomach, duodenum), etc.

HSP70 = HSP70 expression by Western blotting; format: cell-based, human
IκBα [2] = target: T1, IκBα (Homo sapiens, UniProt P25963); assay: In vitro IκBα ubiquitination assay with HeLa cell extract; settings: cell free system, two different concentrations
T1 sequence (P25963 1-317): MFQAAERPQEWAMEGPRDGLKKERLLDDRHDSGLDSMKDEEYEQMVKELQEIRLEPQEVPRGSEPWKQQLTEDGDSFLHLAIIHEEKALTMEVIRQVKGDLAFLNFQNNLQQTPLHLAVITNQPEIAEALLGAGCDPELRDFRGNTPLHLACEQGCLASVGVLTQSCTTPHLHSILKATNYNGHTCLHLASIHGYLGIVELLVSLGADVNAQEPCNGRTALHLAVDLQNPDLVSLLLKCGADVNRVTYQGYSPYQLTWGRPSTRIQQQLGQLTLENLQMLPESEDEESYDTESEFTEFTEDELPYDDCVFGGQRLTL
Experimental: HeLa cells were harvested by centrifugation at 4,000 rpm. The packed cell volume was estimated, and the cells osmotically lysed by the addition of 5 volumes of hypotonic buffer (10 mM Tris-Cl, pH 7.9, 1.5 mM MgCl2, 10 mM KCl, 0.2 mM PMSF, 0.5 mM DTT). The mixture was incubated on ice for 10 minutes, then homogenized with 12 strokes of a Dounce homogenizer (B Type pestle). The crude lysate was centrifuged for 15 minutes at 4,000 rpm, followed by recentrifugation of the supernatant at 100,000×g for 30 minutes. This supernatant was concentrated by the addition of solid (NH4)2SO4 to 80% saturation, stirred at 4° C. for 30 minutes and centrifuged for 15 minutes at 12,000 rpm. The precipitate was resuspended in 1/5 volume of 20 mM Tris-Cl pH7.6, 20 mM KCl, 5 mM MgCl 2, 1 mM DTT, 0.5 mM PMSF, 5 μM Chymostatin and 20 μM E64, and dialyzed against >500 volumes of 20 mM Tris-Cl pH 7.6, 20 mM KCl, 5 mM MgCl2, 1 mM DTT, 10% glycerol at 4° C. overnight and stored at −70° C. until use.
PR-39 or control peptides were also added to individual reactions. […] The samples were then heated for 5 minutes at 95° C. and analyzed by SDA-PAGE on 4-15% acrylamide gradient gels (BioRad, Hurcules, Calif.). After electrophoresis, the gels were incubated with gentle stirring in 30% methanol 10% acetic acid, dried and analyzed using a Fuji phosphorimager. […]

IκBα [3] = assay: IκBα degradation in mouse pancreas, caerulein-induced acute pancreatitis; format: in vivo; settings: 10 mg/kg i.v. 1 hour before caerulein 50 μg/kg i.v.; 30 min later
Experimental: Male mice weighing 20-25 g (ICR, Charles River Laboratories, Wilmington, Mass.) were pretreated with PR-39 (10 mg/kg, i.v.) or physiological saline 1 hour before injecting 50 μg/kg i.v. of caerulein (Research Plus, Bayonne, N.J.) to induce acute pancreatitis. 30 min later the animals were sacrificed in a CO2 chamber and a 75-100 mg piece of pancreas was removed for Western blotting and NFκB gel shift assays.
As empirically shown, induction of acute pancreatitis by treatment with the cholecystokinin analog caerulein leads to the prompt disappearance of IκBα (FIG. 2B) and activation of NFκB-dependent transcription in the pancreas (FIG. 2C).

[4] = target: T2, α7 subunit of the 20S proteasome (Mus musculus, UniProt O70435); assay: Yeast two-hybrid binding of PR-39 to α7 and its fragments; settings: growth of lacZ+ colonies on selective medium; deletion mutants of mouse α7
T2 construct: made in house; host or cells: yeast (Y190 for the screen, CG1945 for the deletion analysis)
T2 sequence (O70435 1-255): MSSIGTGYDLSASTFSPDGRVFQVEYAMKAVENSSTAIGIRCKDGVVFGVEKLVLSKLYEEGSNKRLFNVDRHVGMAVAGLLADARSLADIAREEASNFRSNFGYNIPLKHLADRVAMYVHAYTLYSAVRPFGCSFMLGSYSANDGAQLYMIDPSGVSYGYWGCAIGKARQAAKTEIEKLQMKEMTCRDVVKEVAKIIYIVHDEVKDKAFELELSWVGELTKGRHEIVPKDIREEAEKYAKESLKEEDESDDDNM
Description: Two-hybrid screening was done using Clontech MATCHMAKER GAL4 System 2 (Clontech). cDNA of porcine PR39 peptide corresponding to the 4th exon (amino acids 131 to 169) was subcloned into pAS2-1 vector as bait. Mouse embryo 3T3 MATCHMAKER cDNA library (Clontech) was screened in the yeast Y190 strain. Plasmids from HIS3/LacZ positive clones were sequenced and co-transformed with bait plasmid back into the Y190 strain to confirm the interaction.
To identify possible intracellular targets of PR-39 peptide action, a yeast two-hybrid screen of mouse CDNA library was performed using the unique 4th exon DNA sequence of porcine PR-39 gene as “bait”. […] All four clones encoded overlapping identical cDNA sequences which are highly homologous to the sequence of the human α7 (HC8) subunit of the 20S proteasome (GeneBank accession AF055983).
Deletion mutants of the mouse α7 subunit were cloned into yeast two-hybrid vector, and the extent of growth of lacZ+ colonies on selective medium following co-transformation with PR-39 construct in the yeast CG1945 was determined.

IκBα [5] = assay: IκBα ubiquitination in HA-Ub expressing ECV304 cells; format: cell-based, human; settings: 10 μM pretreatment, TNF-α 1 ng/ml
Experimental: ECV304 cells were stably transfected with a HA-tagged ubiquitin plasmid MT123 (kind gift of Dr. G. Walz, BIDMC). The clone with the highest expression of HA-ubiquitin was treated with 10 μM PR39 for 45 min followed by treatment with 1 ng/ml TNFα for 20 min. At that point, the cells were washed and lysed and IκBα was immunoprecipitated. Following SDS-PAGE and membrane transfer of the immunoprecipitated material, the HA-ubiquitinated IκBα was visualized by Western blotting with an anti-HA antibody (Santa Cruz).
To assess the effect of PR-39 peptide treatment on IκBα ubiquitination in intact cells, a stable ECV304-derived cell line expressing HA-tagged ubiquitin was generated. […] HA-Ub expressing ECV304 cells were exposed to 1 ng/ml TNF-α in the presence (+) or absence (−) of 10 μM PR-39 pretreatment. 45 min later the cells were lysed and subjected to IκBα immunoprecipitation followed by Western blotting of the pellet material with anti-HA antibody. Note the presence of multiple ubiquitinated IκBα intermediaries in PR-39 peptide treated cells but not in control cells.

IκBα [6] = assay: IκBα phosphorylation in U937 cell culture; format: cell-based, human; settings: U937 cells, 10 μM pretreatment, TNFα 1 ng/ml, 45 min
Experimental: To explore potential mechanisms of this selective inhibition, the effect of peptide administration on IκBα phosphorylation and ubiquitination was studied. It is known that TNF-α treatment leads to phosphorylation of IκBα, which is required for its subsequent ubiquitination. The result is indicated by FIG. 4A.
U937 cells cultured in the absence (−) or presence (+) of pretreatment with 10 μM PR-39 were exposed to 1 ng/ml TNFα. 45 min later the cells were lysed and subjected to SDS-PAGE and Western blotting with anti-IκBα antibody. Note the increased amount of the typical-appearing phosphorylated IκKBα band in PR-39 treated cells.

Sequence: RRRPRPPYLPRPRPPPFFPPRLPPRIPPGFPPRFPPRFP [PR-39]
- levels of p21, cyclin E and c-fos (p21, cyclin E and c-fos; ECV304 cells): failed to demonstrate any effect
- proteasome-mediated degradation of p21, cyclin E and c-fos (p21, cyclin E and c-fos; U937 cells pretreated with various amounts, then TNF-α 1 ng/ml): lack of PR-39 dependent inhibition
- reduction of infarct size [1]: 60%
- HSP70 expression (HSP70; U937 cells, 1 μM, 3 hr exposure): lack of induction of HSP70 expression
- HSP70 levels (HSP70; cultured ECV304 cells, 10 μM): failed to stimulate HSP70 accumulation
- IκBα ubiquitination in vitro (IκBα [2]): failed to affect IκBα ubiquitination
- IκBα in mouse pancreas (Western blotting) (IκBα [3]): preservation of IκBα
- binding of PR-39 to α7 and its fragments [4]: only the full length a7 construct was able to bind to PR-39
- ubiquitinated IκBα in cells (IκBα [5]): accumulation of more ubiquitinated IκBα complexes
- amount of phosphorylated IκBα (IκBα [6]): increased the amount of the phosphorylated form of IκBα
